“Also recorded” adds a separate entry of the source.
Columns and labels:
[1] = cited from earlier work
[2] = cited from earlier work; remark: listed apart in the source
[3] = Aminosterol-induced response after a single oral dose; assay type: in vivo; conditions: single 200 mg oral dose
[4] = cited from earlier work; remark: listed apart in the source
[5] = test system: PD related hallucinations; conditions: cited from earlier work
[6] = test system: Parkinson's disease patient with hallucinations; assay: Case reports: oral squalamine in PD patients with hallucinations (Examples 1-3); assay type: in vivo, human
Excerpt: MV1, a person with a 13-year history of PD had been suffering from daily visual hallucinations for 5 years. MV1 reported that the hallucinations occurred at night. MV1 was aware that the apparitions were unreal, and they were fully awake when they occurred. The hallucinations consisted mostly of faceless dead relatives who came into their bedroom, sat on their bed, or in a chair, or walked around. […] Sometimes MV1 would shout at the hallucinations to go away and the hallucinations would disappear. MV1 also had tactile hallucinations, causing MV1 to feel that insects such as cockroaches were climbing up their legs. They would bend down and attempt to brush them off their feet and legs. MV1 also had tactile hallucinations of the hands “as if someone was picking at them”. They were not treated with any antipsychotic medication and they didn't take any sleeping pills or sedatives. They also suffered from REM-behavior disorder (RBD), and had thrashing of arms and legs during their sleep. Their spouse had moved out of the bed several years prior because of the thrashing, screaming and hallucinations.
The patient was started on 75 mg squalamine daily. […] They were also sleeping better. […] Subsequently, the dose was increased to 175 mg, and maintained at 175 mg per day for another week or two, before discontinued. […]
NY1, a person with a 5-year history of PD suffered from daily hallucinations. The hallucinations had been occurring for a number of years. The hallucinations occurred any time of day or night.
NY1 was started on squalamine 75 mg daily and then escalated to 100 mg daily. […] They were maintained at 125 mg per day for about a week, after which medication was discontinued. NY1 remained hallucination-free for 9 days following discontinuation.
The patient, a person with a 10-year history of Parkinson's Disease suffered from frequent hallucinations. The hallucinations would occur at night and consist of people roaming around in their bedroom, such as a young person sitting on their bed, or a priest standing by the bed. They were fully awake and aware that the visions were unreal. They also suffered from fragmented sleep and REM-behavior disorder (RBD).
BC was started on a squalamine dose of 75 mg daily, which was increased to a daily dose of 175 mg that was maintained for a 3-month period. […] They described the hallucinations as cooks with white top hats and cleaners in blue uniforms. […] Upon discontinuing the medication, the hallucinations returned. This cycle of stopping and resuming squalamine treatment was repeated three times, and the hallucinations abated every time the squalamine treatment was resumed and hallucinations came back every time squalamine treatment was stopped. A portion of their sleep diary is shown below in Table 2.

Question: For CC(C)[C@@H](CC[C@@H](C)[C@H]1CC[C@H]2[C@@H]3[C@H](O)C[C@H]4C[C@@H](NCCCNCCCCN)CC[C@]4(C)[C@H]3CC[C@]12C)OS(=O)(=O)O.C[C@H](O)C(=O)O.C[C@H](O)C(=O)O [squalamine dilactate salt], which Solubility in water [1] is on record?
Answer: highly water soluble

Question: What about the Oral bioavailability ([2]; preliminary studies) of the same compound?
Answer: poorly bioavailable orally

Question: What about the Absorption ([2]; rodents, subcutaneous and intraperitoneal routes) of the same compound?
Answer: well absorbed

Question: Which “Duration of the aminosterol-induced response” value [3] does the source give for CC(C)[C@@H](CC[C@@H](C)[C@H]1CC[C@H]2[C@@H]3[C@H](O)C[C@H]4C[C@@H](NCCCNCCCCNCCCN)CC[C@]4(C)[C@H]3CC[C@]12C)OS(=O)(=O)O [Aminosterol 1436] here?
Answer: about 4 days

Question: What about the Weight loss ([4]; administered parenterally to dogs and rodents) of the same compound?
Answer: capable of inducing weight loss

Question: What about the Anorectic activity ([4]; delivered orally) of the same compound?
Answer: no anorectic activity

Question: Which “Improvement over placebo on the SCAD-PD questionnaire” value ([5]; PD related hallucinations) does the source give for CC(C)COc1ccc(CNC(=O)N(Cc2ccc(F)cc2)C2CCN(C)CC2)cc1 [Pimavanserin] here?
Answer: 3 point

Question: What about the “Increased mortality (black box warning)” value ([5]; label) of the same compound?
Answer: 11%

Question: Which “Time hallucination-free following discontinuation, patient NY1” value ([6]; after 125 mg per day for about a week) does the source give for CC(C)[C@@H](CC[C@@H](C)[C@H]1CC[C@H]2[C@@H]3[C@H](O)C[C@H]4C[C@@H](NCCCNCCCCN)CC[C@]4(C)[C@H]3CC[C@]12C)OS(=O)(=O)O [squalamine] here?
Answer: 9 days

Question: What about the “Time hallucination-free after discontinuation, patient MV1” value ([6]; after 175 mg per day) of the same compound?
Answer: 30 days

Question: What about the “Hallucinations, patient” value ([6]; after stopping squalamine administration) of the same compound?
Answer: vivid hallucinations returned; also recorded: Apparitions back with a vengeance; also recorded: Apparitions, cooks in tall hats; also recorded: Apparitions, cleaning crew in blue uniforms; also recorded: Apparitions, severely disturbed sleep

Question: What about the “Hallucination frequency, patient NY1” value ([6]; oral, 100 mg daily, daily hallucinations before) of the same compound?
Answer: no more than once or twice a week

Question: And the “Sleep and RBD, patient MV1” value ([6]; oral, 125 mg daily)?
Answer: continued to improve

Question: What about the “Hallucinations, patient NY1” value ([6]; oral, 125 mg per day) of the same compound?
Answer: disappeared altogether

Question: And the “Hallucinations, patient” value ([6]; oral, 175 mg daily for 3 months)?
Answer: no hallucinations

Question: What about the “Hallucinations, patient MV1” value ([6]; oral, daily dose increased to 125 mg) of the same compound?
Answer: disappeared completely

Question: And the “Hallucinations, patient MV1” value ([6]; oral, dose increased from 75 mg daily)?
Answer: hallucinating less frequently

Question: And the “Hallucinations, patient” value ([6]; squalamine restarted at 125 mg daily)?
Answer: hallucinations vanished; also recorded: No hallucinations since last entry; also recorded: No hallucinations since restarting

Question: And the “Duration of the aminosterol-induced response” value [3]?
Answer: about 4 days

Source: US20190298740A1, “METHODS AND COMPOSITIONS FOR TREATING HALLUCINATIONS AND CONDITIONS RELATED TO THE SAME” (Enterin, Inc., priority 2018, published 2019)
